In patent US20250319049A1, “Additive for animal nutrition” (ADISSEO FRANCE S.A.S., priority 2022, published 2025):

Columns and labels:
[1] = in vitro upper digestive tract model (simulated chicken crop, proventriculus/gizzard, intestine): release of butyric acid; format: in vitro ADME; settings: 50 mM butyric acid equivalent; for release of butyric acid in the stomach: proventriculus/gizzard 45 min at pH 3, 40° C. with pepsin
Description: The experimental tests were conducted in in vitro models described below.
The method developed by Menezez and Blackburn was used to simulate the chicken digestive tract [Menezes-Blackburn D, Gabler S, Greiner R. «Performance of Seven Commercial Phytases in an in Vitro Simulation of Poultry Digestive Tract.»J Agric Food Chem. 2015 Jul. 15; 63 (27): 6142-9]. It consists of simulating the 3 compartments of the upper part of the digestive tract: the crop (30 min at pH 5, 40° C. with stirring), the proventriculus/gizzard (45 min at pH 3, 40° C. with stirring with the addition of pepsin), the intestine (60 min at pH 6.5, 40° C. with stirring with the addition of pancreatin and bile extract). The rate of protection and release of butyrate for each molecule (50 mM butyric acid equivalent of the butyryl lactylate of the disclosure or tributyrin of the prior art) was evaluated in each compartment sequentially (quantification of the release of butyric acid and residual butyric ester).

[2] = in vitro lower digestive tract model (caecal fermentation): release of butyric acid; format: in vitro ADME, broiler chickens (Ross PM33); settings: 50 mM butyric acid equivalent; upper tract model plus caecal fermentation 24 hours at 40° C.
Description: Twelve twenty-one-day-old broiler chickens (Ross PM33), housed in cages, fed and watered ad libitum, were euthanized and their caecal contents were collected and pooled. All experiments were conducted in accordance with the European Union animal protection guidelines and the legislation governing the ethical treatment of animals, and the researchers were certified by the French government to conduct animal experiments. The facilities of the Centre of Expertise and Research in Nutrition comply with Convention No. C 03 159 4 of 6 Nov. 2008, relating to experiments on living vertebrate animals (European Regulation 24/11/86 86/609 EEC; Ministerial Order of 19 Apr. 1988).
The cecal contents were mixed (5% w/v) with an anaerobic buffer prepared according to Theodorou et al. [Theodorou, Michael K., et al. “A simple gas production method using a pressure transducer to determine the fermentation kinetics of ruminant feeds.” Animal feed science and technology 48.3-4 (1994): 185-197], then the microbial suspension transferred into Hungate tubes containing 50 mM of butyric acid equivalent for each candidate (butyryl lactylate of the disclosure or tributyrin of the prior art) and incubated for 24 hours with constant stirring at 40° C.
At the end of the fermentation, the butyric acid and residual butyric ester were quantified.

[3] = palatability / growth performance test in broilers; format: in vivo; settings: broiler chickens, 17-21 days, butyrate source incorporated in standard feed (STD), five days
Description: This evaluation was carried out by in vivo tests conducted in broilers and in piglets at the post-weaning stage. The chickens were placed in normal breeding conditions. They were divided into several groups, and each group received for five days a feed containing a source of butyrate, incorporated directly into a standard feed (STD). […] The growth performances and feed consumption were measured at the beginning and end of the study.

[4] = palatability / growth performance test in post-weaning piglets; format: in vivo; parameters: concentration or dose not given beside the values; settings: butyrate source in standard feed (STD); for BWG (body weight gain), effect compared to a standard control: 36-49 days old; for FCR (feed conversion ratio), effect compared to a standard control / FI (feed intake), effect compared to a standard control: 36-49 days
Description: This evaluation was carried out by in vivo tests conducted in broilers and in piglets at the post-weaning stage.
The animals were placed in normal breeding conditions.
They were divided into four distinct groups, and each group received for about ten days (from 36 to 49 days of age) a standard feed (STD) containing a source of butyrate. Several sources of butyrate were compared: the butyryl lactylate of the disclosure and two protected forms of butyrate, commercially available, a coated butyrate (fat-coated) and tributyrin.
The growth performances and feed consumption were measured at the beginning and end of the study.

solubility in water = format: physicochemical
[5] = hydrolysis in drinking water; format: physicochemical; settings: drinking water of livestock
[6] = listed as STD + butyryl lactylate
[7] = listed as STD + Butyryl lactylate
[8] = listed as STD + tributyrine butyrate

SMILES	release of butyric acid in the stomach [1]	BWG (body weight gain), effect compared to a standard diet [3]	FCR (feed conversion ratio), effect compared to a standard diet [3]	FI (feed intake), effect compared to a standard diet [3]	BWG (body weight gain), effect compared to a standard control [4]	FCR (feed conversion ratio), effect compared to a standard control [4]	FI (feed intake), effect compared to a standard control [4]	other results
CCCC(=O)OC(C)C(=O)O (stereo not shown) [butyryl lactylate]	does not release butyric acid in the stomach	+10%	−6.7%	+2.8%	+21%	−4%	+16%	intestinal release profile of butyric acid, upper and lower intestine [2]: balanced release in the upper and lower intestine; BWG (body weight gain), effect compared to a standard diet [3, 6]: +10%; FI (feed intake), effect compared to a standard diet [3, 6]: +2.8%; BWG (body weight gain), effect compared to a standard control [4, 7]: +21%; FCR (feed conversion ratio), effect compared to a standard control [4, 7]: −4.8%; FI (feed intake), effect compared to a standard control [4, 7]: +16%; solubility in water (solubility in water): soluble in water; hydrolysis into lactic acid and free butyric acid in drinking water [5]: without risk of hydrolysis
CCCC(=O)OCC(COC(=O)CCC)OC(=O)CCC [tributyrin, reference compound]	significant gastric loss	−9%	+6.6%	−3%	−17%	+3.3%	−14%	release of butyric acid in the intestine (upper part) ([1]; intestine 60 min at pH 6.5, 40° C. with pancreatin and bile extract): complete release at the beginning of the small intestine; BWG (body weight gain), effect compared to a standard diet [3, 8]: −9%; FI (feed intake), effect compared to a standard diet [3, 8]: −3%; BWG (body weight gain), effect compared to a standard control [4, 8]: −17%; FCR (feed conversion ratio), effect compared to a standard control [4, 8]: +3.3%; FI (feed intake), effect compared to a standard control [4, 8]: −14%
